EP1736154A1 (priority 2005, dated 2006)
Starred links: 1 amine or outer side, 2 acyl side, 3 side chain; linkers in the order of their positions; H or OH if unused. Positions of bridges follow the written chain, without caps; N, C: chain ends. Non-standard residues stand in square brackets, D forms with d. Residues, ends and D or L forms follow the SMILES beside them. Adda = CO[C@@H](Cc1ccccc1)[C@@H](C)/C=C(C)/C=C/[C@H](N[*:1])[C@H](C)C(=O)[*:2]; dAsp(3S-Me) = C[C@H](C(=O)[*:3])[C@@H](N[*:1])C(=O)[*:2]; d(γGlu) = O=C(O)[C@@H](CCC(=O)[*:2])N[*:1]; NMeDha = C=C(NC)C(=O)O

Tests used:
SMN2 minigene, exon 7 = type: cell-based
tau exon 10 minigene = type: cell-based, human
SMN protein = SMN protein expression in SMA patient fibroblasts (Western blot with anti-SMN antibody)

Row | SMILES | exon 7 inclusion of SMN2 MG (SMN2 minigene, exon 7) | further results
1 | COC[C@@H]([C@H](O)[C@H](O)C(=O)NCC[C@H](C)c1nc(/C=C/C[C@@H]2O[C@]3(C[C@@H](O)[C@@H]2C)O[C@H]([C@H](C[C@H](O)[C@H](C)[C@H](O)[C@H](C)/C=C(C)/C(C)=C/C=C/C(C)=C\C#N)OC)[C@H](OP(=O)(O)O)C3(C)C)co1)N(C)C [Calyculin A] | promote the exon 7 inclusion | –
2 | C[C@@]12C(=O)OC(=O)[C@]1(C)[C@H]1CC[C@@H]2O1 [Cantharidin] | promote the exon 7 inclusion | –
3 | CN(N=O)c1cc(O)ccc1O [Dephostatin] | promote the exon 7 inclusion | –
4 | C=C1C(=O)N[C@H](C)C(=O)N[C@@H](CC(C)C)C(=O)N[C@@H](C(=O)O)[C@H](C)C(=O)N[C@@H](CCCNC(=N)N)C(=O)N[C@@H](/C=C/C(C)=C/[C@H](C)[C@H](Cc2ccccc2)OC)[C@H](C)C(=O)N[C@@H](C(=O)O)CCC(=O)N1C [Microcystin ―LR, Microcystin-LR] (R[Adda][d(γGlu)][NMeDha][dA]L[dAsp(3S-Me)]-OH; lactam N-7) | promote the exon 7 inclusion | –
5 | CO[C@H]([C@H](O)CC(=O)[C@@H](C)[C@@H](O)CC[C@@H](C)[C@@H]1O[C@]2(CC[C@@H](C)[C@H](CC[C@H](C)C(C)=O)O2)CC[C@@H]1C)[C@H](OC(=O)C[C@@H](O)C1=C(C)C(=O)OC1=O)C(C)C [Tautomycin] | – | inclusion of tra2-beta1 dependent enhancers, tau exon 10 minigene (tau exon 10 minigene): promotes inclusion of tra2-beta1 dependent enhancers; inclusion of tra2-beta1 dependent enhancers, SMN2-minigene (SMN2 minigene, exon 7): promotes inclusion of tra2-beta1 dependent enhancers; tra2-betal-dependent splicing enhancers (SMN2 MG splicing pattern) (SMN2 minigene, exon 7): can be manipulated; SMN Protein formation in human fibroblasts (SMN protein): promotes SMN Protein formation
